In paper PMC11035515 (Drugs in R&D, 2023):
Values joined by “and” are separate entries in the source; they are usually repeats but may differ in a detail not shown here. Identical values can stand only once. Marks after values point to notes of the source that are not given here.

How the values were obtained:
[1] = test system: CYP3A4; experiment: Study 2
[2] = molecular target: T1, CYP2D6 (Homo sapiens, UniProt P10635); experiment: Study 2; details: for CL/F: mean ± SD; for Increase of exposure (AUC) by esmethadone: dextromethorphan + esmethadone 75 mg vs dextromethorphan alone; for Cmax: po
[3] = molecular target: T2, CYP2C8 (Homo sapiens, UniProt P10632); details: HLM, esmethadone 0.2–200 μM
[4] = test system: CYP2C8; experiment: in vitro; format: in vitro ADME; details: human
[5] = molecular target: UGT1A4 (Homo sapiens, UniProt P22310); experiment: Inhibition of UGT1A4 in human liver microsomes
[6] = test system: CYP2B6; experiment: in vitro; format: in vitro ADME; details: human
[7] = molecular target: UGT2B7 (Homo sapiens, UniProt P16662); experiment: Inhibition of UGT2B7 in human liver microsomes
[8] = Study 1; format: in vivo, human; details: single 25-mg oral dose of [14C]-esmethadone
[9] = molecular target: T3, CYP2B6 (Homo sapiens, UniProt P20813); experiment: biochemical
[10] = molecular target: T4, CYP2C9 (Homo sapiens, UniProt P11712); experiment: biochemical
[11] = molecular target: OCT1 (Homo sapiens, UniProt O15245); experiment: Uptake transporter assay in transfected HEK293 cells, OCT1 inhibition; format: in vitro ADME
[12] = molecular target: T2, CYP2C8; experiment: biochemical
[13] = molecular target: CYP2A6 (Homo sapiens, UniProt P11509); experiment: Direct inhibition of CYP2A6 in human liver microsomes
[14] = molecular target: T5, CYP2C19 (Homo sapiens, UniProt P33261); details: HLM, esmethadone 0.2–200 μM
[15] = molecular target: T1, CYP2D6; experiment: Direct inhibition of CYP2D6
[16] = molecular target: T5, CYP2C19; experiment: biochemical
[17] = test system: CYP3A4; experiment: CYP3A4 induction in cryopreserved human hepatocytes; format: in vitro ADME; details: mean of three donors
[18] = Microsomal protein binding by equilibrium dialysis; details: 5 h at 37 °C in HLM
[19] = molecular target: human recombinant UGT2B15 (Homo sapiens, UniProt P54855); experiment: Inhibition of UGT2B15 in Supersomes
[20] = cited from earlier work
[21] = molecular target: T3, CYP2B6; details: HLM, esmethadone 0.2–200 μM
[22] = molecular target: UGT1A3 (Homo sapiens, UniProt P35503); experiment: Inhibition of UGT1A3 in human liver microsomes
[23] = molecular target: P-glycoprotein (P-gp) (Homo sapiens, UniProt P08183); experiment: Efflux transporter assay in Caco-2 cells, P-gp inhibition; format: in vitro ADME
[24] = molecular target: CYP1A2 (Homo sapiens, UniProt P05177); details: HLM, esmethadone 0.2–200 μM
[25] = molecular target: UGT1A1 (Homo sapiens, UniProt P22309); experiment: Inhibition of UGT1A1 in human liver microsomes
[26] = molecular target: T4, CYP2C9; details: HLM, esmethadone 0.2–200 μM
[27] = molecular target: UGT1A6 (Homo sapiens, UniProt P19224); experiment: Inhibition of UGT1A6 in human liver microsomes; details: HLM
[28] = Study 2 treatment-emergent adverse events; details: healthy participants, alone or in combination with dextromethorphan and midazolam
[29] = molecular target: UGT1A9 (Homo sapiens, UniProt O60656); experiment: Inhibition of UGT1A9 in human liver microsomes
[30] = test system: CYP2C9; experiment: in vitro; format: in vitro ADME; details: human
[31] = test system: CYP1A2; experiment: in vitro; format: in vitro ADME; details: human
[32] = Study 3; details: human, in vivo, 25 mg
[33] = test system: CYP3A4; experiment: Study 3
[34] = midazolam 2 mg + esmethadone 25 mg, mean ± SD
[35] = midazolam 2 mg alone, mean ± SD
[36] = midazolam + esmethadone vs midazolam alone
[37] = mRNA levels EC50, donor 1, 72 h
[38] = mRNA levels EC50, donor 3, 72 h
[39] = mRNA levels EC50, donor 2, 72 h
[40] = IC50,u (IC50 unbound), HLM, corrected for fraction unbound

T5 sequence (P33261 whole entry): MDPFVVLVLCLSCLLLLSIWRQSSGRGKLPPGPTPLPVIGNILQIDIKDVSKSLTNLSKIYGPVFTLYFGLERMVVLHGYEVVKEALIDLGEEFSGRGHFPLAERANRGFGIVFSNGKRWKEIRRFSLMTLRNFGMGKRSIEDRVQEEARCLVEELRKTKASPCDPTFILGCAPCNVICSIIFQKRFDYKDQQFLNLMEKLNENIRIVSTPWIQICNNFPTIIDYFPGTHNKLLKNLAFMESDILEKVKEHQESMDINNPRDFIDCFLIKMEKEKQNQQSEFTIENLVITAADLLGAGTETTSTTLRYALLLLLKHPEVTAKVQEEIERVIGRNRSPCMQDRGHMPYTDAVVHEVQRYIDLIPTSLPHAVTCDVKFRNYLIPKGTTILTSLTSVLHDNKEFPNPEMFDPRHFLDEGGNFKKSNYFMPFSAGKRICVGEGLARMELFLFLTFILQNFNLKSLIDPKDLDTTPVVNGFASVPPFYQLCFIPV
T1 sequence (P10635 whole entry): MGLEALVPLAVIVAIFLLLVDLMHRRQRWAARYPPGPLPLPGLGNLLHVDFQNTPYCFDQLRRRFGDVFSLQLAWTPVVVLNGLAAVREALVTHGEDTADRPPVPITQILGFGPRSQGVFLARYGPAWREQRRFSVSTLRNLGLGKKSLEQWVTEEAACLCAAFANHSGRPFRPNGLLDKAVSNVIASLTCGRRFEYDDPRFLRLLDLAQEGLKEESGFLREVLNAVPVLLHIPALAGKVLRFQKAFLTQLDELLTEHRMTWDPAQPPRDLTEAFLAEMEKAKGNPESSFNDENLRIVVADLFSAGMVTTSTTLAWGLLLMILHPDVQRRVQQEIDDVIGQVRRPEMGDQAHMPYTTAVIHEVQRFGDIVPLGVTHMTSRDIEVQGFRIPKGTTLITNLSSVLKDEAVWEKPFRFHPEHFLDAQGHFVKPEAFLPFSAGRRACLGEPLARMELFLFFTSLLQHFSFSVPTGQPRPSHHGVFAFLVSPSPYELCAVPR
UGT1A1, sequence (P22309 26-533): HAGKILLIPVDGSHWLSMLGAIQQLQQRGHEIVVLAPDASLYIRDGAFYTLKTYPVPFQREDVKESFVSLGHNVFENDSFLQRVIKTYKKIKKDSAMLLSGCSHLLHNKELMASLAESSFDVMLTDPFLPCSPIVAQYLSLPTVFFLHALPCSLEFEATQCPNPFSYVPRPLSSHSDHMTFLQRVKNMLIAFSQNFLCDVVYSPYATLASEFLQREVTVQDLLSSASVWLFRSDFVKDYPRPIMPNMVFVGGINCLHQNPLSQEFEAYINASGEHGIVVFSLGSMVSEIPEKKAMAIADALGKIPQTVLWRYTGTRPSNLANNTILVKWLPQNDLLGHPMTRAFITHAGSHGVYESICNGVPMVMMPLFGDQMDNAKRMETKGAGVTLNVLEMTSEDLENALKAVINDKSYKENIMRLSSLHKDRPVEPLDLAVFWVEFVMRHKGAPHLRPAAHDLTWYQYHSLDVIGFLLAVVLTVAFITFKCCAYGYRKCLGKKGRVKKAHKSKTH
CYP2A6, sequence (P11509 whole entry): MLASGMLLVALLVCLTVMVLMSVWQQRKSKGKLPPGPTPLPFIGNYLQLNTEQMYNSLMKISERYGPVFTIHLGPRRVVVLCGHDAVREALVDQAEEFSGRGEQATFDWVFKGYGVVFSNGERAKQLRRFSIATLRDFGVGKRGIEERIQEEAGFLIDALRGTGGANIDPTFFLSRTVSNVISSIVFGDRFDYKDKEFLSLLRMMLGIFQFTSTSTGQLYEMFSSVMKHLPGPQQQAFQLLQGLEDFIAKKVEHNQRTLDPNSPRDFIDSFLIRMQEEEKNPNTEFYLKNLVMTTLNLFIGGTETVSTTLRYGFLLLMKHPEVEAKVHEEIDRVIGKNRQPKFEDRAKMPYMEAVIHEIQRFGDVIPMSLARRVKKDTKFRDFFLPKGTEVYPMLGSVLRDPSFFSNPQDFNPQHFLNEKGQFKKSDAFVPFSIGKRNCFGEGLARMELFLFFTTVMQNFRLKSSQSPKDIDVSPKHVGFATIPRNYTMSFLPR
human recombinant UGT2B15, sequence (P54855 24-530): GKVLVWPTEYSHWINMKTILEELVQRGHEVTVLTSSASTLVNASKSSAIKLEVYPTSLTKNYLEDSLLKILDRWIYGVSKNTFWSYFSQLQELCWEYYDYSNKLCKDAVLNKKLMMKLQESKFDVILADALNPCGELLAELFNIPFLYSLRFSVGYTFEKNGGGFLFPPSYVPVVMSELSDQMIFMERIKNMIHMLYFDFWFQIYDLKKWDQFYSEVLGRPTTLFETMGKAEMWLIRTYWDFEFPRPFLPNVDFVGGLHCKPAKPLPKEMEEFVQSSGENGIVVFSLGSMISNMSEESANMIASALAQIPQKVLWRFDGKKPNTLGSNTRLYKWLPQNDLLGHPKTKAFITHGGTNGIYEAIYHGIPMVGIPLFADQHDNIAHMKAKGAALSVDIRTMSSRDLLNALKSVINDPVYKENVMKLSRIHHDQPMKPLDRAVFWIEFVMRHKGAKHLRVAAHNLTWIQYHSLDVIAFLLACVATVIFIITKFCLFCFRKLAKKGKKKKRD
T3 sequence (P20813 whole entry): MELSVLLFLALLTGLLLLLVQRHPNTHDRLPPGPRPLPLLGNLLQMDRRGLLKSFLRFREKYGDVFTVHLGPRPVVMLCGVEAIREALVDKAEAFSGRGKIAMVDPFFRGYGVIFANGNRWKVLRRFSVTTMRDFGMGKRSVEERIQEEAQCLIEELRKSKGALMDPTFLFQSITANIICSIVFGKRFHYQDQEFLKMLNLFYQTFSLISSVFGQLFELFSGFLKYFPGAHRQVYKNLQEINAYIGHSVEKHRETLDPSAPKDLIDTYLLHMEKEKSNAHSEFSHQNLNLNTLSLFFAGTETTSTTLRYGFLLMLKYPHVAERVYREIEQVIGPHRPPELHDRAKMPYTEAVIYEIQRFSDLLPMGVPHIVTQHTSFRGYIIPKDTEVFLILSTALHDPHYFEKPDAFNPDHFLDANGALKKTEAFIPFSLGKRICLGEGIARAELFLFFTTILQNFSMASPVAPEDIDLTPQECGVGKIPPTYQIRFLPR
T4 sequence (P11712 whole entry): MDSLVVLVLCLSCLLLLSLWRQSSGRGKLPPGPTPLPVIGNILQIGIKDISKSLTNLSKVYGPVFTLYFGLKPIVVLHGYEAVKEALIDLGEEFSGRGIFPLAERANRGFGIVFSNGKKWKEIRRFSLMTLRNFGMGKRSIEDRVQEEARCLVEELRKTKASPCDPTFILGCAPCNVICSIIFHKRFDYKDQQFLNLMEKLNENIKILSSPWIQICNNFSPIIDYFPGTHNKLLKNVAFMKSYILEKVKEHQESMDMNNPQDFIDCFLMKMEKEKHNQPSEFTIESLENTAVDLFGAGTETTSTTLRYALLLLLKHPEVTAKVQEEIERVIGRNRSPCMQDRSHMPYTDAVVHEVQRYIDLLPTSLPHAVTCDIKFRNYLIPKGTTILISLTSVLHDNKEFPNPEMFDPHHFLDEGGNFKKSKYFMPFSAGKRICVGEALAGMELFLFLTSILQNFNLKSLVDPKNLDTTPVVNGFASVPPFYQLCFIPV
UGT1A9, sequence (O60656 26-530): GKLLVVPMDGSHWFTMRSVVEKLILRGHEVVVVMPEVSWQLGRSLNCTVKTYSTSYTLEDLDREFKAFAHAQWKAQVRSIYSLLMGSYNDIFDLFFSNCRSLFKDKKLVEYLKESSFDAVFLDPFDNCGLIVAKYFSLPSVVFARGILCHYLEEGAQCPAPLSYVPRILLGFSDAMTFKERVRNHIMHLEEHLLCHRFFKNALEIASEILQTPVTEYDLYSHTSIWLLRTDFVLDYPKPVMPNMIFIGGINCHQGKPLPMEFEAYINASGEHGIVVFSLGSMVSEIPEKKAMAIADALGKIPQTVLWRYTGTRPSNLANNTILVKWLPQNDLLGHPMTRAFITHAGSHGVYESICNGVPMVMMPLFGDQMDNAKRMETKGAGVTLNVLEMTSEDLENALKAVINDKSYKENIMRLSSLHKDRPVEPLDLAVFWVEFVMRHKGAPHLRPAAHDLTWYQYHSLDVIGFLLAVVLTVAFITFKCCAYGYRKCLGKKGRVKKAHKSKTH
UGT1A3, sequence (P35503 29-534): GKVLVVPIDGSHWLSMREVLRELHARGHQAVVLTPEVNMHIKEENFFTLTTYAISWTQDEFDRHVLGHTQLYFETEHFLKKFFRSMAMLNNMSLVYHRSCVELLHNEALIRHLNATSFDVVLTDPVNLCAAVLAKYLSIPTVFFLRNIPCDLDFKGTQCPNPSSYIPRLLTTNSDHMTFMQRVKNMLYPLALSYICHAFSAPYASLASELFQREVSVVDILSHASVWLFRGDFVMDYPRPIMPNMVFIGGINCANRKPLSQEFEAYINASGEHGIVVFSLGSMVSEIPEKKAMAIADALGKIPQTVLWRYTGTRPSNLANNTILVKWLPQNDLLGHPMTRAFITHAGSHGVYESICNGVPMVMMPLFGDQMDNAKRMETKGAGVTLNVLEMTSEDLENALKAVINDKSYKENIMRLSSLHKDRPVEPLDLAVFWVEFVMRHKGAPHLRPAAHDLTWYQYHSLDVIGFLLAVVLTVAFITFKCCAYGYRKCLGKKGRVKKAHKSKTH
T2 sequence (P10632 whole entry): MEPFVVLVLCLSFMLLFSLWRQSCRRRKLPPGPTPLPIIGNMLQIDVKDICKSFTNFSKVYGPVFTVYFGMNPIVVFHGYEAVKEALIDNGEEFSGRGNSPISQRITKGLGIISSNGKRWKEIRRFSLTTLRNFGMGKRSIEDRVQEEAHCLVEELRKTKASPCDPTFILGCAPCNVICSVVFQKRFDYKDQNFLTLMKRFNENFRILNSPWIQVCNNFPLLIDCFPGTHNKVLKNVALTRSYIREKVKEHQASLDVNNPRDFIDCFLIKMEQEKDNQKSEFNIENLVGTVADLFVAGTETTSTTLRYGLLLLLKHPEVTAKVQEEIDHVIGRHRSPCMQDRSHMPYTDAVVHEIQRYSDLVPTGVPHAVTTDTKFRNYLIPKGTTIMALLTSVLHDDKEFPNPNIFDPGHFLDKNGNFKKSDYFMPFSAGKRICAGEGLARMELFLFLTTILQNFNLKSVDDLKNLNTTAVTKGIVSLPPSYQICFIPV

Molecule: OCc1ncc2n1-c1ccc(Cl)cc1C(c1ccccc1F)=NC2 [1′-hydroxymidazolam]
- Cmax ([1]; midazolam 2 mg + esmethadone 25 mg (day 19, after repeated dosing), mean ± SD): 13,100 ± 4930 pg/mL
- AUC0–inf [1, 34]: 42,700 ± 15100 h*pg/mL
- AUC0–t [1, 34]: 41,100 ± 14,500 h*pg/mL
- Tmax ([1]; midazolam 2 mg + esmethadone 25 mg, median (range)): 0.925 (0.500–2.00)* h
- AUC0–inf [1, 35]: 11,600 ± 8260 h*pg/mL
- AUC0–t [1, 35]: 10,700 ± 7360 h*pg/mL
- Tmax ([1]; midazolam 2 mg alone, median (range)): 0.500 (0.500–0.750) h
- Cmax ([1]; midazolam 2 mg oral alone (day 1), plasma, mean ± SD): 5440 ± 3520 pg/mL
- Increase of AUC by esmethadone [1, 36]: 3.84 fold and 3.8 fold
- Increase of Cmax by esmethadone [1, 36]: 2.4 fold

Molecule: COc1ccc2c(c1)[C@]13CCCC[C@@H]1[C@H](C2)N(C)CC3 [dextromethorphan]
- CL/F ([2]; dextromethorphan 30 mg + esmethadone 75 mg): 907 ± 715 L/h
- CL/F ([2]; dextromethorphan 30 mg alone): 4560 ± 3280 L/h
- Increase of exposure (AUC) by esmethadone [2]: 2.71 fold
- AUC(0-inf) ([2]; human, plasma, oral, 30 mg): 0.0312 µg·h/mL
- AUC(0-t) ([2]; human, plasma, oral, 30 mg): 0.0266 µg·h/mL
- Tmax ([2]; human, plasma, oral, 30 mg): 2.5 h
- Vd/F ([2]; human, plasma, oral, 30 mg): 39000 L
- half-life ([2]; human, plasma, oral, 30 mg): 7.15 ± 3.29 h
- Cmax ([2]; human, plasma, 30 mg): 2.2 ± 3.8 ng/mL

Molecule: CN1CC[C@@]23CCCC[C@@H]2[C@@H]1Cc1ccc(O)cc13 [dextrorphan]
- Increase of exposure (AUC) by esmethadone [2]: 3.11 fold
- AUC(0-inf) ([2]; human, plasma, oral, 30 mg): 0.0272 µg·h/mL
- AUC(0-t) ([2]; human, plasma, oral, 30 mg): 0.0263 µg·h/mL
- half-life ([2]; human, plasma, oral, 30 mg): 5.64 ± 4.97 h
- Cmax ([2]; human, plasma, 30 mg): 4.9 ± 2.62 ng/mL

Molecule: CCC(=O)C(C[C@H](C)N(C)C)(c1ccccc1)c1ccccc1 [esmethadone]
- Conclusion (inhibitory activity) [3]: Yes
- EC50 at 72 h [4, 37]: 2.85 µM
- EC50 at 72 h [4, 38]: 5.27 µM
- IC50 [5]: > 200 µM
- Conclusion (inhibitory activity) ([5]; HLM): Yes
- EC50 at 72 h [6, 37]: 4.3 µM
- EC50 at 72 h [6, 39]: 5.36 µM
- EC50 at 72 h [6, 38]: 4.12 µM
- CYP2D6 inhibitor category (FDA guidelines) ([2]; clinical, esmethadone 75 mg loading dose): moderate inhibitor of CYP2D6
- IC50 [7]: > 200 µM
- Conclusion (inhibitory activity) ([7]; HLM): Yes
- Fecal excretion of the component [8]: no fecal excretion
- Percent of the total plasma radioactivity exposure through 24 h post-dose [8]: 70.4%
- Radioactivity excreted in urine [8]: 53.9 % of the dose
- Mean exposure (AUC0.5–24) in plasma ([8]; healthy male subjects): 1200 ng eq. h/g
- Urinary excretion of the component ([8]; mean across subjects): 13 % of the dose
- IC50 [9]: > 200 µM
- IC50 [10]: > 200 µM
- IC50 [11]: 1.67 µM
- Effect of esmethadone on CYP3A4 activity ([1]; clinical, esmethadone 25 mg once daily): negligible effect
- IC50 [12]: > 200 µM
- IC50 [13]: > 200 µM
- Conclusion (inhibitory activity) ([13]; HLM, esmethadone 0.2–200 μM): Yes
- Conclusion (inhibitory activity) [14]: Yes
- Type of inhibition ([15]; HLM): mixed (competitive and non-competitive) inhibition
- Conclusion (inhibitory activity) ([15]; HLM, esmethadone 0.2–200 μM): Yes
- IC50 ([15]; IC50, HLM, dextromethorphan O-demethylase): 9.6 µM and 9.63 µM
- IC50 [15, 40]: 8.28 µM
- Ki ([15]; Ki, HLM, five substrate concentrations 2–50 μM): 2.02 µM
- Ki ([15]; Ki,u (unbound Ki), HLM, corrected for fraction unbound): 1.74 µM
- IC50 ([16]; IC50, HLM): 174 µM
- IC50 [16, 40]: 150 µM
- Increase of CYP3A4 enzyme activity [17]: 5.2 ± 4.8 fold
- Increase of CYP3A4 mRNA [17]: 21.4 ± 1.1 fold
- Stability under equilibrium dialysis testing conditions [18]: stable
- IC50 [19]: 139 µM
- Conclusion (inhibitory activity) ([19]; Supersomes): Yes
- Cmax,u, maximal unbound concentration in plasma at steady state [20]: 0.587 µM
- Conclusion (inhibitory activity) [21]: Yes
- IC50 [22]: > 200 µM
- Conclusion (inhibitory activity) ([22]; HLM): Yes
- IC50 [23]: 9.28 µM
- Conclusion (inhibitory activity) [24]: No
- IC50 [25]: > 200 µM
- Conclusion (inhibitory activity) ([25]; HLM): Yes
- Conclusion (inhibitory activity) [26]: Yes
- Conclusion (inhibitory activity) [27]: No
- Tolerability [28]: well tolerated
- IC50 [29]: > 200 µM
- Conclusion (inhibitory activity) ([29]; HLM): Yes
- EC50 at 72 h [30, 37]: 1.05 µM
- EC50 at 72 h [30, 38]: 18.1 µM
- EC50 at 72 h [31, 37]: 25.7 µM
- EC50 at 72 h [31, 39]: 3.75 µM
- EC50 at 72 h [31, 38]: 26.3 µM
- Tmax [32]: 3 h
- Maximum observed concentration (text, concentration–time profiles) ([33]; esmethadone 25 mg co-administered with cobicistat): 130 ± 22.5 ng/mL
- Increase of total exposure (AUC0–inf) by cobicistat ([33]; esmethadone + cobicistat vs alone): 32%
- AUC(0-inf) ([33]; human, in vivo, 25 mg): 4.43 ± 1.37 µg·h/mL
- AUC(0-t) ([33]; human, in vivo, 25 mg): 4.1 ± 1.21 µg·h/mL
- Cmax ([33]; human, in vivo, po, 25 mg): 131 ± 31.5 ng/mL

Molecule: CCC(=O)C(C[C@@H](C)N(C)C)(c1ccccc1)c1ccccc1 [levomethadone]
- Time to maximum observed concentration (Tmax) ([20]; oral methadone): 3 h

Molecule: CCC(=O)C(CC(C)N(C)C)(c1ccccc1)c1ccccc1 (centres unmarked) [methadone]
- Higher concentration associated with a single nucleotide polymorphism of P-gp [20]: 32.9%
- Oral bioavailability, inter-subject range [20]: 36–100%
- Oral bioavailability ([20]; similar for the two enantiomers): 70–80%

Molecule: Cc1ncc2n1-c1ccc(Cl)cc1C(c1ccccc1F)=NC2 [midazolam, reference compound]
- AUC(0-inf) ([1]; human, in vivo, 2 mg): 0.0268 µg·h/mL
- AUC(0-t) ([1]; human, in vivo, 2 mg): 0.0255 µg·h/mL
- Tmax ([1]; human, in vivo, 2 mg): 0.5 h
- Vd/F ([1]; human, in vivo, 2 mg): 571 ± 182 L
- half-life ([1]; human, in vivo, 2 mg): 5.12 ± 1.92 h
- Cmax ([1]; human, in vivo, po, 2 mg): 11500 pg/mL
- CL/F [1, 34]: 84.5 ± 27.5 L/h
- CL/F [1, 35]: 83.8 ± 27.9 L/h

Molecule: oxy-esmethadone glucuronide
- Percent of the total plasma radioactivity exposure through 24 h post-dose [8]: 0.473%
